Data published in patent US8691865B2 (AbbVie Inc., priority 2008, dated 2014).

target: human Cav2.2 (Homo sapiens, UniProt Q00975); experiment: Assessment of calcium channel activity using FLIPR (Ca2+ influx in IMR32 cells); assay type: cell-based; conditions: not given
In short: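 IC50 values derive from nonlinear sigmoidal fitting of percent inhibition, relative to inhibitor-free activity, of Ca2+ influx read by FLIPR. Cells were IMR32 human neuroblastoma, plated at 1−1.2×10^5 per well and grown 48 h at 37 °C.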

Chain of human Cav2.2 (Q00975 whole entry): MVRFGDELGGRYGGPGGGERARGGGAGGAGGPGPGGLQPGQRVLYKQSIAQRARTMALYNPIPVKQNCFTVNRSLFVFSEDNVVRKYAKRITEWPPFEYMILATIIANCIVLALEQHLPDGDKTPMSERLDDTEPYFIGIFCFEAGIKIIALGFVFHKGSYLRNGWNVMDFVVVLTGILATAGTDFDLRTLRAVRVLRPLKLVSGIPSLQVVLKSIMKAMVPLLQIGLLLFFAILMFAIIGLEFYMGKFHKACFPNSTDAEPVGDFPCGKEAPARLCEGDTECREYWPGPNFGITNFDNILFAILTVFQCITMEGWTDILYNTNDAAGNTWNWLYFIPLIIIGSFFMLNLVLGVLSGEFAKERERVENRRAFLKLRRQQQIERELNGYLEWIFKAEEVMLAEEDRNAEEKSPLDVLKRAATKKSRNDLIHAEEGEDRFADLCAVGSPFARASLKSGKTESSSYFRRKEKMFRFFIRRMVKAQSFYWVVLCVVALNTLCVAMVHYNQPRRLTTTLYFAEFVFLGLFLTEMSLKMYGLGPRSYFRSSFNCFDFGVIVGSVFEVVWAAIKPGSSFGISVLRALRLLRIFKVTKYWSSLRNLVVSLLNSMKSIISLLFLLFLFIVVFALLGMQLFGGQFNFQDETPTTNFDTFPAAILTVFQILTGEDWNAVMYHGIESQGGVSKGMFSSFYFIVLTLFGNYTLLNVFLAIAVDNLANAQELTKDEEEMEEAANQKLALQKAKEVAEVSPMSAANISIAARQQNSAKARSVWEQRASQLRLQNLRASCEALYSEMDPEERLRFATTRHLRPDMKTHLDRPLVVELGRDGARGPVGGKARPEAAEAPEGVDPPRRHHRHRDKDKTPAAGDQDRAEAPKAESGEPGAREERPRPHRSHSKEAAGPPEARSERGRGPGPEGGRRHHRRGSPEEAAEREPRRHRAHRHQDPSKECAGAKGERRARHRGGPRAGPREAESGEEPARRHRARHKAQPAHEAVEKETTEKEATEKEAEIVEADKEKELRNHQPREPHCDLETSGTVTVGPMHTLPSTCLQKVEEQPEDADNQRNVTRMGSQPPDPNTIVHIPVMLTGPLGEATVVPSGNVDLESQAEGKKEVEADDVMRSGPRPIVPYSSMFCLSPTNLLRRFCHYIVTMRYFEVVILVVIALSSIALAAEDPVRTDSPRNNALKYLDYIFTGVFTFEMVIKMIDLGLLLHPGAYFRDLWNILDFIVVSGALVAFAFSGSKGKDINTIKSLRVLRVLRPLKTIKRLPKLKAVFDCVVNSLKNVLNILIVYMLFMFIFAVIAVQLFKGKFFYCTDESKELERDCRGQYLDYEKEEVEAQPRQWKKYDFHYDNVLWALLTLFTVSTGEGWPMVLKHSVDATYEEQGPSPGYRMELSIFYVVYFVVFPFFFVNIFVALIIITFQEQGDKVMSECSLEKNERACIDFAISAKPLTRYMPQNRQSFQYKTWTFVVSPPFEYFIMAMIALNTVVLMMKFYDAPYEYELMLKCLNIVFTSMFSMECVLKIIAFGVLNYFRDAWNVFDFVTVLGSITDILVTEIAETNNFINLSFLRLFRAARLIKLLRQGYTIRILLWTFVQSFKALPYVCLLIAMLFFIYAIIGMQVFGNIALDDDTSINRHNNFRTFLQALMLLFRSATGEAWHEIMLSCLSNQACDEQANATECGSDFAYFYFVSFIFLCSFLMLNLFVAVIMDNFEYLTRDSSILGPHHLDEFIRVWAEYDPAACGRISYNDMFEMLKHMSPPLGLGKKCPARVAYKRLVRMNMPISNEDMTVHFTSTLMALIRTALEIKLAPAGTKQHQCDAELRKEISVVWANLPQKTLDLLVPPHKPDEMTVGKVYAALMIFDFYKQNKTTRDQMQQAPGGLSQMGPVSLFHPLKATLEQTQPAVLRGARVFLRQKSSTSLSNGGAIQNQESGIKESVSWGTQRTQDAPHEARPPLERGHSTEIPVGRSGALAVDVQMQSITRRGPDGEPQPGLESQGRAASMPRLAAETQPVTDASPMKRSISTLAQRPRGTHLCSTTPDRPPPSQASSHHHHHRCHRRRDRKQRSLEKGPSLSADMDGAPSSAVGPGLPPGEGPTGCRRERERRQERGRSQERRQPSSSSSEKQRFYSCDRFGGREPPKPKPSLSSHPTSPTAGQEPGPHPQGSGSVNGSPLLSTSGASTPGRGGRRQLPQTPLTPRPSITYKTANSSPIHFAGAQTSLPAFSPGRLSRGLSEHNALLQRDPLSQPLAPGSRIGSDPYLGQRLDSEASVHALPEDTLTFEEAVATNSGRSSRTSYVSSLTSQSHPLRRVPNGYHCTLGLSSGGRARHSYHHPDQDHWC
Chain of human Cav2.2 (P54289 25-956 partner limits assumed): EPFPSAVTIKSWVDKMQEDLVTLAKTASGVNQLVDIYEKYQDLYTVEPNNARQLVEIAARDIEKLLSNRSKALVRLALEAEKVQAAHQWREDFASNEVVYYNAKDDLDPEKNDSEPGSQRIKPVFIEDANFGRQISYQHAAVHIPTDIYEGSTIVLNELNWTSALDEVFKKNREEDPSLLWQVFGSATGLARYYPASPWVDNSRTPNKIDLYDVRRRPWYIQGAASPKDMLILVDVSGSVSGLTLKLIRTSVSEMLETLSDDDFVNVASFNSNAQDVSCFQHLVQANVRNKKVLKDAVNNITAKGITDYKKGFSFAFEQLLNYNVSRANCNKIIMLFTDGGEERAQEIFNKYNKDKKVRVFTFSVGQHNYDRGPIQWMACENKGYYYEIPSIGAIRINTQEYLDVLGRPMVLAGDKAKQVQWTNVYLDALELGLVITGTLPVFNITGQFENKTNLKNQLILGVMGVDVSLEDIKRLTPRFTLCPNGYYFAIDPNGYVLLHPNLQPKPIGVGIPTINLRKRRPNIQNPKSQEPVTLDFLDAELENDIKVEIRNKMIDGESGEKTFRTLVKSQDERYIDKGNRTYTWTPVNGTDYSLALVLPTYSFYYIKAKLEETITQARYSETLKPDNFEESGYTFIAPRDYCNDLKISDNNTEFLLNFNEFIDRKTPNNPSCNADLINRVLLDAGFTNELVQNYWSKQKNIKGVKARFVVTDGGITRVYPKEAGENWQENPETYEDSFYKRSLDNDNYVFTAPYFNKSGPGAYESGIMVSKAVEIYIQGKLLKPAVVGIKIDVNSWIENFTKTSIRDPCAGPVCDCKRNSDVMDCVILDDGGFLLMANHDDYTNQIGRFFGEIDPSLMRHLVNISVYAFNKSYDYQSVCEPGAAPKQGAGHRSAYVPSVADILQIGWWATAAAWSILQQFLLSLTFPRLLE
Chain of human Cav2.2 (P54289 957-1103 partner limits assumed): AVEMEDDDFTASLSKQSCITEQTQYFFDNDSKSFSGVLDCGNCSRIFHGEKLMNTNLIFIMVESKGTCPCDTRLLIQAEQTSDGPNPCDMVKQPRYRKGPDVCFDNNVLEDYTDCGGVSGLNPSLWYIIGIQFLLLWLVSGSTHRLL
Chain of human Cav2.2 (P54284 whole entry partner): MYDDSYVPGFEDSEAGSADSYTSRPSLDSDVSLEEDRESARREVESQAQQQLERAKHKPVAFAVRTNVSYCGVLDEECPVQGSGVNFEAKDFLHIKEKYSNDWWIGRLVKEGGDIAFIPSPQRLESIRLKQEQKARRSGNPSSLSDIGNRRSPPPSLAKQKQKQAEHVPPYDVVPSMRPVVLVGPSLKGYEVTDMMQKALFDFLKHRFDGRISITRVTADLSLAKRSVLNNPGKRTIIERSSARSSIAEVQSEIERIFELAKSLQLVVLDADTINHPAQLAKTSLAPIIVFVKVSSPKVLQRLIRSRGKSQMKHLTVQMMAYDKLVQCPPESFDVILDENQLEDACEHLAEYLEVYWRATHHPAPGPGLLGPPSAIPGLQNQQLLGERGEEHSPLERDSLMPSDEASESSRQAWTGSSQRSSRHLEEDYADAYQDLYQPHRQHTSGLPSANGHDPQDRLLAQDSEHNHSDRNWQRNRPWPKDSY

CC(C)C(C(=O)N[C@H]1CC[C@@H]2CN(Cc3cccc(C(F)(F)F)c3)C[C@@H]21)C(C)C [Example 305, 2-isopropyl-3-methyl-N-{(3aR,4S,6aS)-2-[3-(trifluoromethyl)benzyl]octahydrocyclopenta[c]pyrrol-4-yl}butanamide] and CC(C)[C@@H](C(=O)N[C@@H]1CC[C@H]2CN(Cc3cccc(C(F)(F)F)c3)C[C@H]21)N(C)C(=O)OC(C)(C)C [Example 316, tert-butyl methyl((S)-3-methyl-1-oxo-1-((3aS,4R,6aR)-2-(3-(trifluoromethyl)benzyl)octahydrocyclopenta[c]pyrrol-4-ylamino)butan-2-yl)carbamate] are within 1.5-fold of each other in IC50: 1.63 µM for the first, 2.02 µM for the second.

Going from CC[C@H](NC(C)C)C(=O)N[C@H]1CC[C@@H]2CN(c3ccc(C(F)(F)F)cc3)C[C@@H]21 [Example 762, (2S)-2-(isopropylamino)-N-{(3aR,4S,6aS)-2-[4-(trifluoromethyl)phenyl]octahydrocyclopenta[c]pyrrol-4-yl}butanamide] to CN[C@H](C(=O)N[C@H]1CC[C@@H]2CN(c3ccc(OC(F)(F)F)cc3)C[C@@H]21)C(C)C [Example 756, N^2-methyl-N-{(3aR,4S,6aS)-2-[4-(trifluoromethoxy)phenyl]octahydrocyclopenta[c]pyrrol-4-yl}-L-valinamide], the IC50 rises from 5.11 µM to over 9.5 µM.

O=C(N[C@@H]1CC[C@H]2CN(Cc3cccc(C(F)(F)F)c3)C[C@H]21)C(c1ccccc1)c1ccccc1 (relative stereo) [Example 145, 2,2-diphenyl-N-{(3aS*,4R*,6aR*)-2-[3-(trifluoromethyl)benzyl]octahydrocyclopenta[c]pyrrol-4-yl}acetamide] and O=C(N[C@H]1CC[C@H]2CN(Cc3cccc(C(F)(F)F)c3)C[C@H]21)C(O)C1CCCCC1 (stereo partly drawn) [Example 237, 2-cyclohexyl-2-hydroxy-N-{(3aS,4S,6aR)-2-[3-(trifluoromethyl)benzyl]octahydrocyclopenta[c]pyrrol-4-yl}acetamide] are within 1.5-fold of each other in IC50: 1.14 µM for the first, 1.46 µM for the second.

CN[C@H](C(=O)N[C@H]1CC[C@@H]2CN(c3cccc(OC(F)(F)F)c3)C[C@@H]21)C(C)C [Example 758, N^2-methyl-N-{(3aR,4S,6aS)-2-[3-(trifluoromethoxy)phenyl]octahydrocyclopenta[c]pyrrol-4-yl}-L-valinamide] and CN[C@@H](CC(C)C)C(=O)N[C@H]1CC[C@@H]2CN(c3ccc(F)c(C(F)(F)F)c3)C[C@@H]21 [Example 621, N-{(3aR,4S,6aS)-2-[4-fluoro-3-(trifluoromethyl)phenyl]octahydrocyclopenta[c]pyrrol-4-yl}-N^2-methyl-L-leucinamide] are within 1.5-fold of each other in IC50: 1.42 µM for the first, 0.99 µM for the second.

First: Cn1nccc1CN[C@H]1CC[C@@H]2CN(c3cccc(C(F)(F)F)n3)C[C@@H]21 [Example 725, (3aR,4S,6aS)-N-[(1-methyl-1H-pyrazol-5-yl)methyl]-2-[6-(trifluoromethyl)pyridin-2-yl]octahydrocyclopenta[c]pyrrol-4-amine]
Second: Cn1c(CN[C@H]2CC[C@@H]3CN(c4cccc(C(F)(F)F)n4)C[C@@H]32)cc2ccccc21 [Example 720, (3aR,4S,6aS)-N-[(1-methyl-1H-indol-2-yl)methyl]-2-[6-(trifluoromethyl)pyridin-2-yl]octahydrocyclopenta[c]pyrrol-4-amine]
The IC50 of the first is 1.5-fold lower: 0.94 µM for the first, 1.44 µM for the second.

Fc1ccc(-c2c[nH]c(CN[C@H]3CC[C@@H]4CN(c5cccc(C(F)(F)F)n5)C[C@@H]43)n2)cc1 [Example 744, (3aR,4S,6aS)-N-{[4-(4-fluorophenyl)-1H-imidazol-2-yl]methyl}-2-[6-(trifluoromethyl)pyridin-2-yl]octahydrocyclopenta[c]pyrrol-4-amine] and FC(F)(F)c1cccc(N2C[C@H]3CC[C@H](NCc4c[nH]nc4-c4ccccc4)[C@H]3C2)n1 [Example 682, (3aR,4S,6aS)-N-[(3-phenyl-1H-pyrazol-4-yl)methyl]-2-[6-(trifluoromethyl)pyridin-2-yl]octahydrocyclopenta[c]pyrrol-4-amine] are within 1.5-fold of each other in IC50: 1.21 µM for the first, 0.87 µM for the second.

First: O=C(N[C@H]1CC[C@@H]2CN(c3cccc(C(F)(F)F)n3)C[C@@H]21)c1cc2occc2[nH]1 [Example 574, N-{(3aR,4S,6aS)-2-[6-(trifluoromethyl)pyridin-2-yl]octahydrocyclopenta[c]pyrrol-4-yl}-4H-furo[3,2-b]pyrrole-5-carboxamide]
Second: O=S(=O)(N[C@H]1CC[C@@H]2CN(c3cccc(C(F)(F)F)n3)C[C@@H]21)c1ccc(F)c(Cl)c1 [Example 710, 3-chloro-4-fluoro-N-{(3aR,4S,6aS)-2-[6-(trifluoromethyl)pyridin-2-yl]octahydrocyclopenta[c]pyrrol-4-yl}benzenesulfonamide]
The IC50 of the first is 4-fold lower: 1.38 µM for the first, 5.56 µM for the second.

First: CCC[C@H](NC)C(=O)N[C@H]1CC[C@@H]2CN(S(=O)(=O)c3ccc(OC)c(OC)c3)C[C@@H]21 [Example 545, N^1-{(3aR,4S,6aS)-2-[(3,4-dimethoxyphenyl)sulfonyl]octahydrocyclopenta[c]pyrrol-4-yl}-N^2-methyl-L-norvalinamide]
Second: CCC[C@@H](C(=O)N[C@H]1CC[C@@H]2CN(S(=O)(=O)c3cccs3)C[C@@H]21)N(C)C(=O)OC(C)(C)C [Example 531, tert-butyl methyl((S)-1-oxo-1-((3aR,4S,6aS)-2-(thiophen-2-ylsulfonyl)octahydrocyclopenta[c]pyrrol-4-ylamino)pentan-2-yl)carbamate]
The IC50 of the first is higher: over 30 µM for the first, 3.49 µM for the second. The second is the more potent here.

N[C@@H](CC1CCCCC1)C(=O)N[C@H]1CC[C@@H]2CN(S(=O)(=O)c3ccc(C(F)(F)F)cc3)C[C@@H]21 [Example 426, 3-cyclohexyl-N^1-((3aR,4S,6aS)-2-{[4-(trifluoromethyl)phenyl]sulfonyl}octahydrocyclopenta[c]pyrrol-4-yl)-L-alaninamide] and O=C(N[C@H]1CC[C@@H]2CN(c3cccc(C(F)(F)F)n3)C[C@@H]21)[C@H](O)C(F)(F)F [Example 585, (2S)-3,3,3-trifluoro-2-hydroxy-N-{(3aR,4S,6aS)-2-[6-(trifluoromethyl)pyridin-2-yl]octahydrocyclopenta[c]pyrrol-4-yl}propanamide] are within 1.5-fold of each other in IC50: 1.79 µM for the first, 1.52 µM for the second.

In the case of CN[C@@H](CC(C)C)C(=O)N[C@H]1CC[C@@H]2CN(c3ccc(C#N)cc3)C[C@@H]21 [Example 647, N-[(3aR,4S,6aS)-2-(4-cyanophenyl)octahydrocyclopenta[c]pyrrol-4-yl]-N^2-methyl-L-leucinamide], the IC50 is reported as 3.77 µM.

same assay, conditions: read-out: IC50 (μM) or percent inhibition (* indicates 3 minute incubation, otherwise 60 minute); IC50; 60 minute pre-incubation with compound; IMR32 cells, 80 mM KCl depolarization

In order of falling IC50:
1. O=C(N[C@H]1CC[C@H]2CN(Cc3ccccc3)C[C@H]21)C(C1CCCCC1)C1CCCCC1 [Example 15, N-[(3aS,4S,6aR)-2-benzyloctahydrocyclopenta[c]pyrrol-4-yl]-2,2-dicyclohexylacetamide]  16.5 µM
2. CC(C)C(C(=O)N[C@H]1CC[C@@H]2CN(Cc3ccccc3)C[C@@H]21)C(C)C [Example 229, N-[(3aR,4S,6aS)-2-benzyloctahydrocyclopenta[c]pyrrol-4-yl]-2-isopropyl-3-methylbutanamide]  13.4 µM
3. CN[C@@H](CC(C)C)C(=O)N[C@H]1CC[C@@H]2CN(Cc3cccc(C(F)(F)F)c3)C[C@@H]21 [Example 379, N^2-methyl-N^1-{(3aR,4S,6aS)-2-[3-(trifluoromethyl)benzyl]octahydrocyclopenta[c]pyrrol-4-yl}-L-leucinamide]  8.6 µM
4. CC[C@H](C(=O)N[C@H]1CC[C@@H]2CN(Cc3ccccc3)C[C@@H]21)c1ccccc1 [Example 33, (2S)-N-[(3aR,4S,6aS)-2-benzyloctahydrocyclopenta[c]pyrrol-4-yl]-2-phenylbutanamide]  7.41 µM
5. CC(C)C(C(=O)N[C@H]1CC[C@H]2CN(Cc3ccccc3)C[C@H]21)c1ccccc1 (stereo partly drawn) [Example 14, N-[(3aS,4S,6aR)-2-benzyloctahydrocyclopenta[c]pyrrol-4-yl]-3-methyl-2-phenylbutanamide]  3.79 µM
6. O=S(=O)(c1cccc(C(F)(F)F)c1)N1C[C@@H]2CC[C@@H](NC(c3ccccc3)c3ccccc3)[C@@H]2C1 [Example 467, (3aS,4R,6aR)-N-benzhydryl-2-{[3-(trifluoromethyl)phenyl]sulfonyl}octahydrocyclopenta[c]pyrrol-4-amine]  3.5 µM
7. CC(C)C(C(=O)N[C@H]1CC[C@@H]2CN(Cc3ccccc3)C[C@@H]21)c1ccc(Cl)cc1 (stereo partly drawn) [Example 43, N-[(3aR,4S,6aS)-2-benzyloctahydrocyclopenta[c]pyrrol-4-yl]-2-(4-chlorophenyl)-3-methylbutanamide]  1.49 µM
8. CC(C)[C@H](N)CC(=O)N[C@@H]1CC[C@H]2CN(S(=O)(=O)c3cccc(C(F)(F)F)c3)C[C@H]21 [Example 397, (3R)-3-amino-4-methyl-N-((3aS,4R,6aR)-2-{[3-(trifluoromethyl)phenyl]sulfonyl}octahydrocyclopenta[c]pyrrol-4-yl)pentanamide]  1.46 µM
9. CC(C)C[C@@H](C(=O)N[C@H]1CC[C@H]2CN(Cc3cccc(C(F)(F)F)c3)C[C@H]21)N(C)S(C)(=O)=O [Example 167, N^2-methyl-N^2-(methylsulfonyl)-N^1-{(3aS,4S,6aR)-2-[3-(trifluoromethyl)benzyl]octahydrocyclopenta[c]pyrrol-4-yl}-L-leucinamide]  1.21 µM
10. CC(C)C[C@@H](C(=O)N[C@@H]1CC[C@H]2CN(Cc3ccccc3)C[C@H]21)N(C)C(=O)OC(C)(C)C [Example 151, N^1-[(3aS,4R,6aR)-2-benzyloctahydrocyclopenta[c]pyrrol-4-yl]-N^2-(tert-butyloxycarbonyl)-N^2-methyl-L-leucinamide]  0.71 µM
11. CC(C)C[C@@H](C(=O)N[C@@H]1CC[C@H]2CN(Cc3cccc(C(F)(F)F)c3)C[C@H]21)N(C)C(=O)OC(C)(C)C [Example 155, N^2-(tert-butyloxycarbonyl)-N^2-methyl-N^1-{(3aS,4R,6aR)-2-[3-(trifluoromethyl)benzyl]octahydrocyclopenta[c]pyrrol-4-yl}-L-leucinamide]  0.69 µM
12. CC(C)(C)C(C(=O)N[C@@H]1CC[C@H]2CN(Cc3cccc(C(F)(F)F)c3)C[C@H]21)c1ccccc1 (relative stereo) [Example 147, 3,3-dimethyl-2-phenyl-N-{(3aS*,4R*,6aR*)-2-[3-(trifluoromethyl)benzyl]octahydrocyclopenta[c]pyrrol-4-yl}butanamide]  0.51 µM
